According to patent US11505574B2, “Modulation of P53 for the treatment of cancer” (THE REGENTS OF THE UNIVERSITY OF CALIFORNIA, priority 2016, dated 2022):

Experiments:
MCF7 tumor spheres = test: MCF7 tumor sphere assay; type: cell-based, human; conditions: MCF7 cells; 5 μM; 6.25 ng/mL doxorubicin; 7 days (FIGS. 34E, 34F)
Procedure: For the experiments shown in FIG. 34E, MCF7 cells were plated at a density of 20,000 cells per well using 2 mL Mammocult media in 6-well ultra-low adherent plates. The following day, cells were treated with Pen-Ctrl or Pen-Pep8 at a concentration of 5 μM. Peptides were added to each well for 20 minutes followed by 6.25 ng/mL doxorubicin. Cells were grown for 7 days and then the number of tumor spheres that were larger than 50 μm in diameter were counted (i.e., 20 10× photos were randomly taken and tumor spheres counted from the digital photos). For the graph shown in FIG. 34F, statistical analysis was performed using the student's t-test (n=3; *p≤0.05).
For the experiments shown in FIG. 36C, MCF7 cells were plated at a density of 20,000 cells per well using 2 mL Mammocult media in 6-well ultra-low adherent plates. The following day, cells were treated with 150 nM Cyc-Ctrl or Cyc-Pep8 (SEQ ID NO:5). 150 nM Cyc-Ctr/Pep8 was incubated in 100 μL serum-free DMEM with 3 μg PEP1 for 25 minutes before being added to the cells. After 20 minutes, 3.125 ng/mL doxorubicin was added to the cells for 7 days. Cells were grown for 7 days and then tumor spheres were counted that were larger than 50 μm in diameter (i.e., 20 10× photos were randomly taken and tumor spheres were counted from the digital photos).

[1] = target: T1, eIF4E association with p53 mRNA (Homo sapiens, UniProt P06730); test: RNA-ChIP assay in RKO cells; type: cell-based; conditions: 1.5 μM, 2 hours, versus Pen-Ctrl (FIG. 33A)
T1 construct: endogenous in cells; host or cells: RKO cells
T1 sequence (P06730 2-217 limits assumed): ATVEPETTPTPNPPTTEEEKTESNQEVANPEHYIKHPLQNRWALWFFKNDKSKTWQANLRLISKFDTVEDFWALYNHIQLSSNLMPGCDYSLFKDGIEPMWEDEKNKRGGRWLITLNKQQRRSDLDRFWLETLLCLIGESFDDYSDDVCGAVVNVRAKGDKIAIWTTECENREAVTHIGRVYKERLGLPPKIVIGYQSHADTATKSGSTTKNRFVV
Procedure: RNA-ChIP assays were performed to examine how peptides of the present invention affect eIF4E association with p53 mRNA (FIG. 33). For the experiments shown in FIG. 33A, 4 10 cm plates were seeded with 2×10^6 RKO cells the night before. The next morning 2 plates were treated with 1.5 μM Pen-Ctrl (SEQ ID NO:10) and 2 plates were treated with 1.5 μM Pen-Pep8 (SEQ ID NO:50) for 2 hours. RKO cells were harvested in 1 mL per plate polysome lysis buffer, then centrifuged at 16,000×G for 15 minutes in a microcentrifuge at 4° C. The supernatant was pooled from all aliquots and transferred to a 15 ml tube. Equilibration was performed with 50% protein A-agarose slurry in polysome lysis buffer by washing twice with 0.5 mL of polysome lysis buffer and then restoring the original volume with lysis buffer. 3×200 μL tubes of agarose. For preclearing, one aliquot of equilibrated protein A-agarose beads was added to the lysate (50 μL of 50% agarose per 1 mL lysate) and incubated with rotation at 4° C. for 1 hour. Lysate was divided into microcentrifuge tubes and centrifuged briefly for 30 seconds to collect beads. Supernatant was pooled and transferred to a new 15 mL tube. After repeating the preclearing and bead collection steps, lysate was divided into 1 mL aliquots (i.e., 2×1 mL Pen-Ctrl and 2×1 mL Pen-Pep8). […]

## RQIKIWFQNRRMKWKKYPYAASPA [Pen-Pep8, Penetratin fused to Pep8]
MCF7 tumor spheres
  number of tumor spheres larger than 50 μm in diameter, sensitization to low dose doxorubicin: sensitized cells to low dose doxorubicin
[1]
  eIF4E association with p53 mRNA (RNA-ChIP): increased eIF4E association with p53 mRNA
